Reference: article PMC6873674, “Inhibition of Plasmodium sporogonic stages by ivermectin and other avermectins” (Parasites & Vectors, 2019)
pIC50: −log10 of the molar value.

Columns and labels:
[1] = tested on: Drosophila melanogaster S2 cells; assay: AlamarBlue in vitro cytotoxicity assay; format: cell-based; conditions: 10 µM, up to 7 days
Procedure: Compounds were screened for their in vitro cytotoxicity against D. melanogaster S2 cells, using the AlamarBlue® assay (Invitrogen, Carlsbad, USA). This assay allows to measure metabolic activity based on a fluoremetric/colorimetric indicator [28]. To assess the effect of the compounds on cell development, Drosophila melanogaster S2 cells were seeded in a 1:10 ratio (10^5 S2 cells) in Schneider’s medium (S0146, Sigma-Aldrich) supplemented with 15% FBS, penicillin/streptomycin (50 U/ml, 50 µg/ml) and gentamicin (50 µg/ml). All the above-mentioned compounds were added to the S2 cell cultures to a final concentration of 10 µM and the amount of DMSO equivalent to that present in the highest compound concentration was used as a control. Cultures were maintained for 7 days and one-quarter of the medium was changed 3 times per week every 48 to 72 h. Samples were collected every day by removing 120 µl of medium and adding 80 µl of AlamarBlue previously diluted in Schneider’s medium (1:10 dilution) to each well. The suspension was transferred to a 96 well flat bottom plate and incubated for one and a half hours at 37 °C. Fluorescence intensity was then measured using a microplate reader (Tecan Infinite M200) at 530 nm excitation wavelength/590 nm emission wavelength to determine cell viability.

[2] = tested on: P. berghei ookinete formation; assay: Bioluminescence assay of ookinete formation in vitro; format: cell-based, Plasmodium berghei; conditions: 10 µM, 24 h
Procedure: Plasmodium berghei ANKA expressing green fluorescent protein (GFP) and luciferase under the control of the circumsporozoite protein (CSP) promoter (line 784cl1, RMgm-152, PbCSPGFP-Luc) was maintained in Anopheles stephensi mosquitoes and BALB/cByJ mice. To maintain gametocyte infectivity, only up to six passages of parasites from infected to naïve mice were performed. Ookinete in vitro production was performed as previously described. Briefly, BALB/cByJ mice were treated with 0.1 ml phenylhydrazine (25 mg/ml) 3 days prior to infection with 10^7 P. berghei-infected red blood cells (iRBC) obtained from a donor mouse. On the third day after infection, gametocytemia was monitored by light microscopy for the presence of exflagellating gametocytes in ookinete medium (1:4 dilution). […]
A bioluminescence assay was used to assess the development of the mosquito stages of PbCSGFP-Luc. […] Fifty µl of D-luciferin in Firefly luciferase assay buffer (1:50 ratio) were added to the samples and parasite load was determined by measuring luminescence intensity using a microplate reader (Tecan Infinite M200, Zurich, Switzerland).
The effect of eprinomectin, abamectin, ivermectin, moxidectin, doramectin and emamectin on the Plasmodium mosquito stages was evaluated as previously described. […] The effect of 10 µM of each compound was assessed on ookinetes, and on oocyst development and maturation. […]

[3] = tested on: P. berghei oocyst formation; assay: Bioluminescence assay of oocyst formation in vitro (Day0-Day3); format: cell-based, Plasmodium berghei; conditions: mean
Procedure: (§1) Purified ookinetes were seeded with Drosophila melanogaster S2 cells (Drosophila Genomics Resource Center, Bloomington, USA) in a 1:10 ratio (10^4 ookinetes and 10^5 S2 cells) in Schneider’s medium (S0146, Sigma-Aldrich) supplemented with 15% FBS, penicillin/streptomycin (50 U/ml, 50 µg/ml) and gentamicin (50 µg/ml) to promote oocyst development. Oocysts were co-cultured with D. melanogaster S2 cells in flat bottom 96-well plates (Corning, New York, USA) for up to 15 days at 19 °C. One-quarter of the medium was changed 3 times per week (every 48 to 72 h), and 10^5 S2 cells were added once per week. In parallel, S2 cells were maintained at 27 °C in Schneider’s medium (S0146, Sigma-Aldrich) supplemented with 10% FBS and penicillin/streptomycin (50 U/ml, 50 µg/ml).
(§2) A bioluminescence assay was used to assess the development of the mosquito stages of PbCSGFP-Luc. In order to evaluate the effect of compounds on the development of the parasite’s mosquito stages, samples were collected at 3 different time points to determine the effect on ookinete and oocyst formation, and oocyst maturation, as previously described. The bioluminescence assay was performed using the Firefly Luciferase Assay Kit (Biotium, Hayward, USA) according to the manufacturer’s instructions, with some modifications. Briefly, the whole well contents were collected and spun down, washed with PBS, frozen in 50 µl of lysis buffer (1:5 ratio) and stored at − 20 °C until further use. Collected samples were lysed and 30 µl of the resulting supernatant were transferred into white 96-well plates. Fifty µl of D-luciferin in Firefly luciferase assay buffer (1:50 ratio) were added to the samples and parasite load was determined by measuring luminescence intensity using a microplate reader (Tecan Infinite M200, Zurich, Switzerland).
(§3) The effect of eprinomectin, abamectin, ivermectin, moxidectin, doramectin and emamectin on the Plasmodium mosquito stages was evaluated as previously described. The compounds were dissolved in dimethyl sulfoxide (DMSO) and the amount of DMSO equivalent to that present in the highest compound concentration was used as a control. The effect of 10 µM of each compound was assessed on ookinetes, and on oocyst development and maturation. Briefly, after 1 h of incubation, the compounds were added to 5 µl of infected blood cultures, and the bioluminescence intensity of the parasites on the ookinete cultures was assessed 24 h later. To assess the effect of the compounds on oocyst development and maturation, compounds were mixed with the mature ookinetes, and parasites collected after 3 days of culture or compounds were added to the oocyst culture after 3 days of culture, and parasites collected 15 days later.
(§4) Compound concentration resulting in 50% inhibition (IC50) for oocyst growth and maturation were estimated for eprinomectin, abamectin, ivermectin, moxidectin, doramectin and emamectin (assayed at 0.05, 0.5, 1, 5, 10, 25 and 50 µM) by nonlinear regression analysis.

[4] = tested on: P. berghei oocyst growth/maturation; assay: Bioluminescence assay of oocyst growth/maturation in vitro (Day3-Day15); format: cell-based, Plasmodium berghei; conditions: mean
Procedure: as §1, §2, §3, §4

[5] = tested on: P. berghei asexual and sexual blood stages; assay: In vivo activity of ivermectin against P. berghei blood stages in infected mice (flow cytometry, microscopy); parameters: species or system Plasmodium berghei (BALB/cByJ mice); conditions: single oral gavage 5 mg/kg, up to 5 days after infection
From the text: Male BALB/cByJ mice (6–8 weeks-old) purchased from Charles River Laboratories Inc. (Lyon, France) were used. Two parasite lines were employed in the experimental work, a transgenic parasite line termed PbCSGFP-Luc (RMgm-152),which expresses the fusion gene gfp-luc under the control of the csp promotor (PBANKA_0403200) integrated into the silent 230p gene locus (PBANKA_0306000), and the transgenic parasite line PbFluo-frmg (RMgm-164), which expresses GFP under control of the ‘male gametocyte-specific’ promoter of PB000791.03.0 (dynein heavy chain, putative) and RFP under the control of the ‘female gametocyte-specific’ promoter PB000504.02.0 (LCCL domain-containing protein CCP2). The rfp and gfp genes are integrated into the genome in the 230p locus (PBANKA_0306000).
In order to assess the in vivo activity of Iv, five BALB/cByJ (Charles River) mice per experimental group were infected by intraperitoneal injection of 10^7 P. berghei Fluo-frmg-infected red blood cells. Parasitaemia and gametocyteamia were measured the following days by flow cytometry analysis of 4 µl of tail blood. Blood was collected in 200 µl of PBS and 100 µl stored at 4 °C, while the remaining was transferred to 100 µl of PBS containing […] of red fluorescent nucleic acid stain Syto®61 (Thermo Fisher Scientific, Waltham, USA) and incubated for 20 min at room temperature in the dark. The samples were analysed on a LSRFortessa X-20 flow cytometer (Becton, Dickinson and Co., New Jersey, USA). Female and male gametocytes were gated based on the analysis of GFP and Red Fluorescence Protein (RFP) fluorescence, and parasitemia was estimated based on the analysis of Syto®61 and forward scatter. The positive cell population was determined by comparison of infected blood samples with an uninfected blood sample. Results were then analysed with the FlowJo^TM Software (Version 10, FlowJo^TM Software, Ashland, USA). Exflagellation was also monitored every day, until parasitemia reached 3% by microscopy analysis. To this end, 2.5 µl of tail blood were collected and mounted on a glass slide, and 8 min later the number of exflagellation events present in 4 independent fields of vision at 40× were determined. When parasitemia reached up to 3%, either DMSO or ivermectin were administered by oral gavage, at a concentration of 5 mg/kg, to five mice of each experimental group. Parasitemia, gametocytemia and exflagellation were monitored for 3 days after treatment, following which the mice were euthanized, and the experiment was terminated.

Compound	inhibition of ookinete formation (transformation of gametes/zygote into ookinetes) [2]	pIC50 [3]	pIC50 [4]	other results
emamectin	approximately 47%	5.14	5.13	cytotoxicity against S2 cells (cell viability) [1]: displays some cytotoxicity
ivermectin	very small and non-significant impact	4.94	5.03	exflagellation events vs untreated controls [5]: no statistically significant differences; female gametocytemia vs untreated controls [5]: no statistically significant differences; male gametocytemia vs untreated controls [5]: no statistically significant differences; overall parasitemia vs untreated controls [5]: no statistically significant differences
eprinomectin		5.24	5.34	
CO/N=C1\C[C@]2(C[C@@H]3C[C@@H](C/C=C(\C)C[C@@H](C)/C=C/C=C4\CO[C@@H]5[C@H](O)C(C)=C[C@@H](C(=O)O3)[C@]45O)O2)O[C@H](/C(C)=C/C(C)C)[C@H]1C [Moxidectin, moxidectin]				pIC50 ([3]; Plasmodium berghei): 4.96; pIC50 ([4]; Plasmodium berghei): 5.26
abamectin		5.06	5.10	
CO[C@H]1C[C@H](O[C@H]2[C@H](C)O[C@@H](O[C@@H]3/C(C)=C/C[C@@H]4C[C@@H](C[C@]5(C=C[C@H](C)[C@@H](C6CCCCC6)O5)O4)OC(=O)[C@@H]4C=C(C)[C@@H](O)[C@H]5OC/C(=C\C=C\[C@@H]3C)[C@]54O)C[C@@H]2OC)O[C@@H](C)[C@@H]1O [Doramectin, doramectin]		5.15	5.36	
